# Reference: the supplement of paper PMC10307832
# Experiments:
# Assay in all cases: relative viability (nuclei count vs DMSO), 5 days (fraction); higher = more cells survive
# [1] = compound: C[C@@H](N)c1ccc(C(=O)Nc2ccnc3[nH]ccc23)cc1 + Cc1cc(Nc2cc(N3CCN(C)CC3)nc(Sc3ccc(NC(=O)C4CC4)cc3)n2)n[nH]1 [Tozasertib] (partner 0.1 µM)
# Summary of the method: (§1)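 One day after seeding in 1536-well plates, lung cancer cell lines were dosed by pin tool. Dosing was either single-drug or a fixed anchor-drug dose plus five library-drug doses (not always all listed) in √10 steps. After 5 days, nuclei were stained in one fix-and-stain step and counted on 4× images, and relative viability is the nuclei count of treated wells over that of vehicle wells, given as the median of duplicate plates.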
# [2] = compound: C[C@@H](N)c1ccc(C(=O)Nc2ccnc3[nH]ccc23)cc1 + N=C(N)NC(=N)NCCc1ccccc1 [Phenformin] (partner 250 µM)
# Summary of the method: as §1
# [3] = compound: C[C@@H](N)c1ccc(C(=O)Nc2ccnc3[nH]ccc23)cc1 + NC(=O)Nc1cc(-c2cccc(F)c2)sc1C(=O)N[C@H]1CCCNC1 [AZD7762] (partner 0.2 µM)
# Summary of the method: as §1
# [4] = compound: C1CNCCC1C2=CC(=NN2)C3=CC=NC=C3 + CCNC(=O)c1noc(-c2cc(C(C)C)c(O)cc2O)c1-c1ccc(CN2CCOCC2)cc1 [Luminespib] (partner 0.01 µM)
# Summary of the method: as §1
Cell Line,relative viability ([1]; first compound 0.04 µM),relative viability ([1]; first compound 0.1265 µM),relative viability ([1]; first compound 0.4 µM),relative viability ([1]; first compound 1.265 µM),relative viability ([1]; first compound 4 µM),relative viability ([2]; first compound 0.04 µM),relative viability ([2]; first compound 0.1265 µM),relative viability ([2]; first compound 0.4 µM),relative viability ([2]; first compound 1.265 µM),relative viability ([2]; first compound 4 µM),relative viability ([3]; first compound 0.04 µM),relative viability ([3]; first compound 0.1265 µM),relative viability ([3]; first compound 0.4 µM),relative viability ([3]; first compound 1.265 µM),relative viability ([3]; first compound 4 µM),relative viability ([4]; first compound 0.08 µM),relative viability ([4]; first compound 0.8 µM),relative viability ([4]; first compound 2.53 µM),relative viability ([4]; first compound 8 µM)
201T,0.945,0.897,0.977,1.08,1.04,0.427,0.442,0.462,0.428,0.473,0.644,0.678,0.668,1.01,0.783,1.03,1.04,1.13,1.01
A549,,,,,,0.0717,0.256,0.279,,0.164,,,,,,,,,
A-427,0.26,0.185,0.237,,0.22,0.287,0.402,0.332,,0.284,0.708,0.751,0.779,0.806,0.665,0.789,1.2,0.908,0.92
ABC-1,0.173,0.158,0.203,,0.164,0.254,0.262,0.227,,0.243,,0.861,0.808,,0.554,0.517,0.69,1.02,0.663
BEN,0.466,0.432,0.53,0.484,0.48,0.279,0.265,0.258,0.267,0.248,0.607,0.879,0.841,0.913,0.663,0.215,0.282,0.341,0.344
CAL-12T,0.366,0.392,0.413,0.443,0.283,0.674,0.609,0.665,0.538,0.56,0.625,0.682,0.606,0.784,0.803,0.606,0.734,0.457,0.819
COR-L23,0.232,0.188,0.204,0.202,0.144,0.44,0.526,0.442,0.28,0.277,,,,,,0.481,0.838,0.64,0.671
COR-L 105,0.359,0.355,0.349,0.296,0.177,0.446,0.492,0.523,0.423,0.377,,,,,,0.688,0.648,0.921,0.962
ChaGo-K-1,0.223,0.219,0.221,0.246,0.21,0.495,0.493,0.46,0.346,0.507,0.832,0.862,0.978,0.838,0.816,0.512,0.555,0.709,0.568
EKVX,0.421,0.379,0.494,0.44,0.438,0.228,0.245,0.241,0.124,0.222,0.708,0.714,0.896,0.745,0.707,0.855,0.609,0.987,0.8
EMC-BAC-2,0.252,0.276,0.3,0.271,0.24,0.41,0.553,0.469,0.404,0.409,0.946,1.09,1.17,1.03,0.895,0.882,1.16,1.28,1.14
EPLC-272H,0.304,0.322,0.531,0.287,0.188,0.365,0.44,0.279,0.198,0.241,0.0944,0.216,0.18,,0.439,0.281,0.22,0.406,0.206
H3255,0.568,0.632,0.779,0.824,0.613,0.396,0.332,0.337,0.348,0.322,0.929,1.07,1.11,1.07,0.724,0.755,0.955,1.15,1.08
HARA,,0.101,0.0806,,0.087,,0.481,0.495,,0.355,0.275,0.266,0.3,0.965,0.311,0.647,0.72,0.793,0.687
HCC-15,0.519,0.332,0.507,,0.657,0.447,0.465,0.437,,0.424,1.19,1.23,1.4,1.18,1.28,0.324,0.347,0.345,0.205
HCC-44,0.793,0.809,1.15,1.2,0.789,0.138,0.172,0.285,0.1,0.218,1.07,1.01,1.09,1.26,1.09,0.923,1.58,1.32,1.06
HCC-78,0.51,0.405,0.733,0.415,0.633,1.05,0.818,0.855,0.797,0.797,0.798,0.624,0.788,0.856,0.477,,,,
HCC-366,0.141,0.169,0.132,,0.229,0.583,0.66,0.617,,0.57,0.174,0.32,0.434,0.588,0.359,,,,

Cell Line,relative viability ([1]; first compound 0.04 µM),relative viability ([1]; first compound 0.1265 µM),relative viability ([1]; first compound 0.4 µM),relative viability ([1]; first compound 1.265 µM),relative viability ([1]; first compound 4 µM),relative viability ([2]; first compound 0.04 µM),relative viability ([2]; first compound 0.1265 µM),relative viability ([2]; first compound 0.4 µM),relative viability ([2]; first compound 1.265 µM),relative viability ([2]; first compound 4 µM),relative viability ([3]; first compound 0.04 µM),relative viability ([3]; first compound 0.1265 µM),relative viability ([3]; first compound 0.4 µM),relative viability ([3]; first compound 1.265 µM),relative viability ([3]; first compound 4 µM),relative viability ([4]; first compound 0.08 µM),relative viability ([4]; first compound 0.8 µM),relative viability ([4]; first compound 2.53 µM),relative viability ([4]; first compound 8 µM)
HCC-827,0.449,0.445,0.447,0.411,0.412,0.424,0.462,0.423,0.394,0.406,,0.286,0.247,0.329,0.275,0.571,0.522,0.749,0.57
HOP-62,0.328,0.351,0.369,0.398,0.297,0.607,0.609,0.636,0.552,0.607,0.534,0.471,0.746,0.685,0.402,0.999,1.06,0.837,0.847
LC-2-ad,0.469,0.523,0.512,,0.441,0.549,0.599,0.609,,0.558,0.763,0.787,0.823,0.787,0.599,,1.13,1.13,0.987
NCI-H520,0.52,0.462,0.448,0.535,0.424,0.635,0.603,0.702,0.404,0.656,,,,,,0.213,0.196,0.214,0.177
NCI-H661,0.286,0.355,0.378,0.34,0.363,0.222,0.274,0.247,0.224,0.244,,,,,,0.93,0.915,0.934,0.848
NCI-H1563,,,,,,0.623,0.74,0.632,0.687,0.641,,,,,,0.536,0.497,0.518,0.494
NCI-H1623,0.443,0.452,0.459,0.475,0.462,0.637,0.528,0.415,0.29,0.622,,,,,,0.401,0.5,0.564,0.551
NCI-H1648,0.655,0.513,0.984,1.02,0.957,,,,,,0.951,1.01,0.924,1.61,1.35,,,,
NCI-H1650,0.386,0.483,0.394,0.291,0.37,0.434,0.463,0.345,0.331,0.421,,,,,,0.246,0.209,0.201,0.223
NCI-H1703,,,,,,,,,,,,0.125,0.131,,0.105,,,,
NCI-H1792,,,,,,0.286,,0.15,0.278,0.357,0.564,0.534,0.69,0.72,0.578,0.43,0.414,0.636,0.483
NCI-H2009,0.736,0.704,0.643,0.623,0.544,0.473,0.531,0.468,0.443,0.435,,,,,,0.995,1.09,1.02,1.01
NCI-H2023,0.426,0.377,0.395,0.462,0.279,0.451,0.482,0.512,0.457,0.411,,,,,,0.709,0.878,0.867,0.832
NCI-H2228,0.252,0.315,0.267,0.299,0.228,0.354,0.393,0.315,0.33,0.357,,,,,,0.121,0.162,0.189,0.161
SK-LU-1,0.34,0.333,0.372,0.289,0.311,0.433,0.611,0.488,0.365,0.405,,,,,,0.204,0.209,0.206,0.212
SK-MES-1,0.881,0.921,0.854,0.825,0.629,0.63,0.712,0.658,0.583,0.571,,,,,,0.716,0.82,0.736,0.613
SW 1573,0.121,0.208,0.174,0.174,0.156,0.363,0.487,0.368,0.363,0.284,,,,,,,0.215,0.244,0.189
